Columns and labels:
Format in all cases: in vivo, Wistar Rats
[1] = Rat feed consumption in global ischemia reperfusion study; conditions: oral daily dosing (Standard 9.3 mg/kg, NBP 49.6 mg/kg, NR 31 mg/kg)
Interleukin - 6 = experiment: Rat Interleukin-6 level after global ischemia reperfusion; conditions: oral 10 days (Standard 9.3 mg/kg, NBP 49.6 mg/kg, NR 31 mg/kg); 30 mins global ischemia on 7th day, 72 hrs reperfusion; mean ± SEM, n = 6; I/R control 121.83 ± 1.65
[2] = Rat body weight in global ischemia reperfusion study; conditions: mean ± SEM, n = 6; for Body Weight, Basal: male Wistar rats; for Body Weight, Week 01: oral daily dosing (Standard 9.3 mg/kg, NBP 49.6 mg/kg, NR 31 mg/kg)
TNF alpha = experiment: Rat TNF alpha level after global ischemia reperfusion; conditions: oral 10 days (Std 9.3 mg/kg, NBP 49.6 mg/kg, NR 31 mg/kg); 30 mins global ischemia on 7th day, 72 hrs reperfusion; mean ± SEM, n = 6; I/R control 172.17 ± 6.35

Row | SMILES | Feed Consumption, Week 01 [1] [gm] | Interleukin - 6 Levels (Interleukin - 6) [pg/mL] | Body Weight, Basal [2] [gm] | Body Weight, Week 01 [2] [gm] | TNF alpha Level (TNF alpha) [pg/mL]
1 | CCCCC1OC(=O)c2ccccc21 (racemic) [3-N-butylpthalide (NBP), 3-N-butylphthalide] | 99.57 ± 1.00 | 85.39 ± 0.62 | 214.50 ± 1.12 | 224.50 ± 0.76 | 132.00 ± 2.34
2 | NC(=O)c1ccc[n+]([C@@H]2O[C@H](CO)[C@@H](O)[C@H]2O)c1.[Cl-] [Nicotinamide Riboside chloride (NR), nicotinamide riboside chloride] | 99.71 ± 1.04 | 109.56 ± 0.27 | 215.00 ± 1.46 | 224.83 ± 1.08 | 160.33 ± 4.79

Reference: patent US11925195B2, “Synergistic nutritional compositions for treating cerebrovascular diseases” (CELAGENEX RESEARCH (INDIA) PVT. LTD., priority 2019, dated 2024)
